The record followed here is ChEMBL document CHEMBL5126546, “Advancements in the development of multi-target directed ligands for the treatment of Alzheimer's disease” (Bioorg Med Chem, 2022).

The target in series [1] is Microtubule-associated protein tau (Homo sapiens) (UniProt P10636). Briefly: Inhibition of tau aggregation (unknown origin) at 20 uM for 72 hrs by thioflavin S based fluorescence analysis.
The nature of series [2]: Permeability of compound by PAMPA-BBB assay. Type of series: ADME. The conditions noted are these: read-out: permeability.
Series [3] deals with T1, Amyloid-beta precursor protein (Homo sapiens, UniProt P05067). The experiment in a line: Inhibition of self-induced amyloid beta (1 to 42) (unknown origin) aggregation by Thioflavin T based fluorometric assay.
T1 sequence (P05067 whole entry): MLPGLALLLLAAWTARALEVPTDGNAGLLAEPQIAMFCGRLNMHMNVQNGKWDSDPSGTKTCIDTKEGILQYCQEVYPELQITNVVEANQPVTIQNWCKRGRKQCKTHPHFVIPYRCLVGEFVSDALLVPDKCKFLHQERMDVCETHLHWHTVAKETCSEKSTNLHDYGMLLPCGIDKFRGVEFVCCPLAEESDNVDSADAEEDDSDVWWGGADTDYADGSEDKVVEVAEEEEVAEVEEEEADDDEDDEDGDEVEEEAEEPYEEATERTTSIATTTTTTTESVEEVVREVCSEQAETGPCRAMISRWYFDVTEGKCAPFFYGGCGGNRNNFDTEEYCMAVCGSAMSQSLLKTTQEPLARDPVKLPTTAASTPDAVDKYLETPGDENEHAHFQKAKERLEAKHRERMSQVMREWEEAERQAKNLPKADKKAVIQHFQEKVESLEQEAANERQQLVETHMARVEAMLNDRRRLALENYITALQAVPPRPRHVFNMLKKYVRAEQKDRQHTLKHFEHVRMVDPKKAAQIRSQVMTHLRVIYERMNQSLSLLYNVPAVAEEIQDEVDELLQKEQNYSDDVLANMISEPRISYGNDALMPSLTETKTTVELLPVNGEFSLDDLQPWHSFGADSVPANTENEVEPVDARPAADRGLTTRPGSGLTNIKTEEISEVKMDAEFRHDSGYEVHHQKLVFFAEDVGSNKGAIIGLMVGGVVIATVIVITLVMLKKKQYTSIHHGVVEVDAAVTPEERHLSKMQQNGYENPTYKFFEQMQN
Series [4] concerns the target T2, Acetylcholinesterase (Homo sapiens, UniProt P22303). The experiment in a line: Inhibition of human AChE using acetylthiocholine iodide as substrate by Ellman's method.
The species named for another series is Homo sapiens. Briefly: Selectivity index, ratio of IC50 for inhibition of human AChE to IC50 for inhibition of human BuChE.
Series [5] deals with 72 kDa type IV collagenase (Homo sapiens, UniProt P08253). Briefly: Inhibition of MMP-2 (unknown origin) by Fluorometric analysis.
Series [6] concerns the target T3, Acetylcholinesterase (Electrophorus electricus, UniProt O42275). The experiment in a line: Inhibition of Electrophorus electricus AChE using acetylthiocholine iodide as substrate preincubated for 5 mins followed by substrate addition and measured for 5 mins by spectrophotometric based Ellman's method.
Series [7] addresses T4, Beta-secretase 1 (Homo sapiens, UniProt P56817). Briefly: Inhibition of BACE-1 (unknown origin).
The target of series [8] is T1, Amyloid-beta precursor protein. Briefly: Inhibition of self-induced amyloid beta (1 to 42) (unknown origin) aggregation at 25 uM.
Series [9] shares this target. The experiment in a line: Inhibition of self-induced amyloid beta (1 to 42) (unknown origin) disaggregation at 25 uM.
The target of series [10] is T5, Cholinesterase (Homo sapiens, UniProt P06276). Briefly: Inhibition of BuChE (unknown origin).
T5 sequence (P06276 whole entry): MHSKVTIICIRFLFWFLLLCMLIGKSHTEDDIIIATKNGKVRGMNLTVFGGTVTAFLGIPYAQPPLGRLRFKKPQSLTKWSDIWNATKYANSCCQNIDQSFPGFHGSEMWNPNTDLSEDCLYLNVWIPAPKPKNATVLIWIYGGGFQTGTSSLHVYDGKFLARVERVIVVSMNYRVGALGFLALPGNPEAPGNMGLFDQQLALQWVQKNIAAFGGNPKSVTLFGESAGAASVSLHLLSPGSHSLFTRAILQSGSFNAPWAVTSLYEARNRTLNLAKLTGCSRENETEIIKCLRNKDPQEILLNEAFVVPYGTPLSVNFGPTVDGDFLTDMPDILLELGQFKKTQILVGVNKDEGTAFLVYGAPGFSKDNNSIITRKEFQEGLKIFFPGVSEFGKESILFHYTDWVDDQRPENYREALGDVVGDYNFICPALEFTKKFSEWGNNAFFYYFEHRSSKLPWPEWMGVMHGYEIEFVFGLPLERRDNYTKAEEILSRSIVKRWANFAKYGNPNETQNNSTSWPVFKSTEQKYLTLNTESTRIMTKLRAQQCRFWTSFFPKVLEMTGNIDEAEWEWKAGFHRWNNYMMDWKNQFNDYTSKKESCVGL
Series [11] concerns the target T2, Acetylcholinesterase. Briefly: Inhibition of recombinant human AChE using acetylthiocholine as substrate by Ellman's method. On the technique in general: In Ellman's method for cholinesterases, released thiocholine reacts with DTNB.
In series [12] the target is T1, Amyloid-beta precursor protein. Briefly: Inhibition of amyloid beta (1 to 42) (unknown origin) self aggregation at 40 uM and measured after 24 hrs by Thioflavin T based fluorometric assay.
The target is the same in series [13]. The experiment in a line: Inhibition of Cu2+ induced amyloid beta (1 to 42) (unknown origin) aggregation at 25 uM and measured after 24 hrs by Thioflavin T based fluorometric assay.
Series [14] has as its target Amine oxidase [flavin-containing] A (Homo sapiens, UniProt P21397). Briefly: Inhibition of recombinant human MAO-A assessed as amount of 4-hydroxyquinoline using kynuramine as a substrate incubated for 30 mins by fluorescence spectrophotometry.
Series [15] addresses Amine oxidase [flavin-containing] B (Homo sapiens, UniProt P27338). Briefly: Inhibition of recombinant human MAO-B assessed as amount of 4-hydroxyquinoline using kynuramine as a substrate incubated for 30 mins by fluorescence spectrophotometry.
Series [16] addresses T3, Acetylcholinesterase. The experiment in a line: Inhibition of Electrophorus electricus AchE incubated for 15 mins by Ellman's method.
Series [17] can be described thus: Antioxidant activity of compound assessed as trolox equivalent of ORAC radical scavenging activity by ORAC-FL assay. Type of series: functional.
Series [18] deals with T5, Cholinesterase. The experiment in a line: Inhibition of BuChE (unknown origin) incubated for 15 mins by Ellman's method.
Series [19] has as its target Glutamate [NMDA] receptor. Briefly: Inhibition of NMDA receptor (unknown origin). Type of series: protein-complex assay, Homo sapiens.
The target in series [20] is Glutamate receptor ionotropic AMPA (Homo sapiens, UniProt P42261+P42262+P42263+P48058). Briefly: Inhibition of AMPA receptor (unknown origin). Type of series: protein-complex assay.
Series [21] addresses T2, Acetylcholinesterase. The experiment in a line: Inhibition of human AChE using acetylthiocholine iodide as substrate preincubated for 6 mins followed by substrate addition and measured for 12 mins by DTNB reagent based Ellman's method.
The target of series [22] is T1, Amyloid-beta precursor protein. Briefly: Inhibition of amyloid beta (1 to 42) (unknown origin) self aggregation incubated for 24 hrs by Thioflavin T based fluorometric assay.
For series [23], the target named is T5, Cholinesterase. The experiment in a line: Inhibition of human BuChE using butyrylthiocholine iodide as substrate at 10 uM preincubated for 6 mins followed by substrate addition and measured for 12 mins by DTNB reagent based Ellman's method. The conditions noted are these: time 18.0 min.
Series [24] deals with T4, Beta-secretase 1. The experiment in a line: Inhibition of human BACE-1 using Rh-EVNLDAEFK-quencher as peptide substrate incubated for 1 hr in dark by FRET assay.
In series [25] the target is Glycogen synthase kinase-3 beta (Homo sapiens) (UniProt P49841). Briefly: Inhibition of GSK-3beta (unknown origin) at 10 uM by Kinase-GLO reagent based assay. On the technique in general: Kinase-Glo measures the ATP left after a reaction by luminescence.
In series [26] the target is T2, Acetylcholinesterase. Briefly: Inhibition of recombinant human AChE using acetylthiocholine iodide as substrate by Ellman's method.
Series [27] concerns the target T2, Acetylcholinesterase. The experiment in a line: Inhibition of AChE (unknown origin) using acetylthiocholine iodide as substrate preincubated for 45 mins followed by substrate addition by DTNB reagent based Ellman's method.
Series [28] in a line: Antioxidant activity assessed as DPPH radical scavenging activity incubated for 30 mins by DPPH assay. Type of series: functional. (DPPH is a stable violet radical that fades when it is reduced.)
A short description of series [29]: Antioxidant activity assessed as NO radical scavenging activity incubated for 150 mins in presence of sodium nitroprusside by griess reagent based assay. Type of series: functional.
The target in series [30] is T6, Gamma-secretase (Homo sapiens) (UniProt Q96BI3+Q9NZ42+Q8WW43+P49768+Q92542+P49810). The experiment in a line: Inhibition of gamma secretase in human H4 cells expressing human wild type APP assessed as reduction in amyloid beta 1-42 level at 100 uM for 12 hrs by ELISA. Type of series: cell-based.
The target of series [31] is T6, Gamma-secretase (Homo sapiens). The experiment in a line: Inhibition of gamma secretase in human H4 cells expressing human wild type APP assessed as reduction in amyloid beta 1-40 level at 100 uM for 12 hrs by ELISA. Type of series: cell-based.
The target of series [32] is T1, Amyloid-beta precursor protein. The experiment in a line: Inhibition of self induced amyloid beta (1 to 42) (unknown origin) aggregation incubated for 24 hrs by Thioflavin T based fluorometric assay.
Series [33] has the same target. The experiment in a line: Inhibition of amyloid beta (1 to 42) (unknown origin) self aggregation at 100 uM and measured after 24 hrs by Thioflavin T based fluorometric assay.

pIC50: −log10 of the molar value.

In general, inhibition refers to the share of the control response that was lost under treatment. As usually defined, the pIC50 is the negative decadic logarithm of the IC50, by convention in mol/L.

T2 sequence (P22303 whole entry): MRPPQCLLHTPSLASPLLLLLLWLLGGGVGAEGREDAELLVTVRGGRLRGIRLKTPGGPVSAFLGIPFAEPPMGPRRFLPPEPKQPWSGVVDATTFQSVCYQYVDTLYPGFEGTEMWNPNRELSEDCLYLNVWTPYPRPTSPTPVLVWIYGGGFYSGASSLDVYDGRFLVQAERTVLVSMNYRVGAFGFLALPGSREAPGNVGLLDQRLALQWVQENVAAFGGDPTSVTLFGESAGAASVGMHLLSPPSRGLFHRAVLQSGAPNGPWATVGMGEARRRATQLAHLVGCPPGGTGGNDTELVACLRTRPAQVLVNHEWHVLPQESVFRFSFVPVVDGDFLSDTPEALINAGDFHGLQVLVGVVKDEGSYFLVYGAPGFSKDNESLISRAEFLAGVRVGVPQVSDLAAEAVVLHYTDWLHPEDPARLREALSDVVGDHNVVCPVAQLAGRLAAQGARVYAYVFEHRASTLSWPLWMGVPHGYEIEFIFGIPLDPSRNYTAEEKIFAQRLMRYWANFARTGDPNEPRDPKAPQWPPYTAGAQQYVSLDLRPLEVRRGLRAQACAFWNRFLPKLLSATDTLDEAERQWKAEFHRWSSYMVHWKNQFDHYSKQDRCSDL
T4 sequence (P56817 whole entry): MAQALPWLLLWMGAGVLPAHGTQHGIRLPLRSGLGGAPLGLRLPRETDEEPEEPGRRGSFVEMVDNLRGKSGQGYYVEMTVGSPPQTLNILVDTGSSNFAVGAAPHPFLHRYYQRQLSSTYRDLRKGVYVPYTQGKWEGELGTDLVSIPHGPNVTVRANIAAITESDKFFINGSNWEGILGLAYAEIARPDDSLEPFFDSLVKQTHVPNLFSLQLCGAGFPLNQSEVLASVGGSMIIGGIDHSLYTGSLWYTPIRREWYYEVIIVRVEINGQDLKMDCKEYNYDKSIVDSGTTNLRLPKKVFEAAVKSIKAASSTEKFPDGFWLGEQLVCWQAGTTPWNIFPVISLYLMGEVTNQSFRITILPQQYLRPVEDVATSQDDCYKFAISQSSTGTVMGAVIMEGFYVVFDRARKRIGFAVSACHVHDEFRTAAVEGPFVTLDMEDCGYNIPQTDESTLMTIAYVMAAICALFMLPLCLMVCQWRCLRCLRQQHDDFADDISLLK
T3 sequence (O42275 whole entry): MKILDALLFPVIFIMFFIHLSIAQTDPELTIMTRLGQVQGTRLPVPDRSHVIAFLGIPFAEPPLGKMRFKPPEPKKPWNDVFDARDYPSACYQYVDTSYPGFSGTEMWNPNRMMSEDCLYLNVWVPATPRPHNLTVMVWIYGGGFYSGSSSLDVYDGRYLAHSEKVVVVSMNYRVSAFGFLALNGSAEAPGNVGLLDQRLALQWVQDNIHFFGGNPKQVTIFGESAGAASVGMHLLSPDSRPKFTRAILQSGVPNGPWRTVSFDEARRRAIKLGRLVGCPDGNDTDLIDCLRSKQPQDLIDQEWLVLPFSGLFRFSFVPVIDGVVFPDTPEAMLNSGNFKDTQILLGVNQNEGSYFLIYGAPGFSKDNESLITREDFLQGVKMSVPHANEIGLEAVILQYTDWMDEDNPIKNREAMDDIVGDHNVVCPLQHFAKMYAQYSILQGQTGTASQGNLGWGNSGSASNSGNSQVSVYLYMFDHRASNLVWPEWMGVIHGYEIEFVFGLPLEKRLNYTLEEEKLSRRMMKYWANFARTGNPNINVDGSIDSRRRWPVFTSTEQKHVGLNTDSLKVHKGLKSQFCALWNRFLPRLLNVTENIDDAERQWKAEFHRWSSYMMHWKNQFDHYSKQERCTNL
Sequence of Microtubule-associated protein tau (Homo sapiens) (P10636 whole entry): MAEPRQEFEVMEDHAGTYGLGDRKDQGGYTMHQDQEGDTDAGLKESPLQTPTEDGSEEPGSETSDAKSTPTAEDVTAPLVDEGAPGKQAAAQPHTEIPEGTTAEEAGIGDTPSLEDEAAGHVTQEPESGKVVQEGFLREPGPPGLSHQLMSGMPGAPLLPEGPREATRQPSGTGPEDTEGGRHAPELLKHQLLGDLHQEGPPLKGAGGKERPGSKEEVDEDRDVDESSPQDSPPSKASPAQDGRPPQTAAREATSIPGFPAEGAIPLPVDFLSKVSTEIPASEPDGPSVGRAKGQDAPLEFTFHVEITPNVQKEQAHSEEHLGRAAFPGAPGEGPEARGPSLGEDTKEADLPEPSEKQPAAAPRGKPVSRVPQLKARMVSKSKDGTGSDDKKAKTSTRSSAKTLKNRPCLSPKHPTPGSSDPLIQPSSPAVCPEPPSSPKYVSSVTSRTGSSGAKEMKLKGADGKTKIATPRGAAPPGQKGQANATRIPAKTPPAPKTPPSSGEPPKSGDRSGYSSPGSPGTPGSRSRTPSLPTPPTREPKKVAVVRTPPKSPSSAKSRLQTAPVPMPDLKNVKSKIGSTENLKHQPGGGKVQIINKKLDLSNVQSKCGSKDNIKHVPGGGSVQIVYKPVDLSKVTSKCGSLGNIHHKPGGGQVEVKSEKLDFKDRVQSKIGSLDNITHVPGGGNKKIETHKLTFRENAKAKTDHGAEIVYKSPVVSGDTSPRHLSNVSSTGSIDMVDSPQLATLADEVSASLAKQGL
Sequence of Amine oxidase [flavin-containing] B (P27338 whole entry): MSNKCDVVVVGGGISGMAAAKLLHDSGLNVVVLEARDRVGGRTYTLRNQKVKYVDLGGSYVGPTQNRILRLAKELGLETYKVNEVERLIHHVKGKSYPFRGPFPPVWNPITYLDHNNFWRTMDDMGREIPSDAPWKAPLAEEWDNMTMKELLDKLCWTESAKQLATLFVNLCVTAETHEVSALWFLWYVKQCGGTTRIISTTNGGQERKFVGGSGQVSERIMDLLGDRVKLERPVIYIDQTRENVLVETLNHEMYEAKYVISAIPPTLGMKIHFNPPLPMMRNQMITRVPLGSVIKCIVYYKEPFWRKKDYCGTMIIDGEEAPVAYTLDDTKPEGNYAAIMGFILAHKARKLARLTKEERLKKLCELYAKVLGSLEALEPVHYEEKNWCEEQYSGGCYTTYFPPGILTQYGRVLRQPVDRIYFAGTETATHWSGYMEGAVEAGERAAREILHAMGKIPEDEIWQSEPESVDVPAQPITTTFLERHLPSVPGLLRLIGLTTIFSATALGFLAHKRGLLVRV
Sequence of Amine oxidase [flavin-containing] A (P21397 whole entry): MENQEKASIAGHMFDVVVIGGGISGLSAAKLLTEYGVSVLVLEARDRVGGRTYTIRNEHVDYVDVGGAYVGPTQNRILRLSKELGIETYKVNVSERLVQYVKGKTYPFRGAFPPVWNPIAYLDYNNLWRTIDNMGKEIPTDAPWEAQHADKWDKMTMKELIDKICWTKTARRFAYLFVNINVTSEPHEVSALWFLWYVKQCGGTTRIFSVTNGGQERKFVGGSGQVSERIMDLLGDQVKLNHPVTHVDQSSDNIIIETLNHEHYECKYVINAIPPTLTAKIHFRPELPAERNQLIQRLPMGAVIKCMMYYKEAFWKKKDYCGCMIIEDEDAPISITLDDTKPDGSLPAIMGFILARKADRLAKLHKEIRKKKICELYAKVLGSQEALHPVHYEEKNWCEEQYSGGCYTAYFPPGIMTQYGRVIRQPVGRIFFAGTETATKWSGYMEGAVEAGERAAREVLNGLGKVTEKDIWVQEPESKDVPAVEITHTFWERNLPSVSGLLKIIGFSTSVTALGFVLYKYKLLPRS

Consider `CC1=C[C@H]2c3c(O)cc(-c4cc5ccc(O)cc5o4)cc3O[C@@]3(c4ccc(O)c5c4OC(C)(C)C=C5)Oc4cc(O)ccc4[C@H](C1)[C@@H]23`, for which, in series [1], the inhibition worked out at 63.3%. Moreover, the Papp in series [2] turned out to be 8.7 ×10⁻⁶ cm/s.
On to `O=c1cc(/N=N/N=P(CCP(=N/N=N/c2cc(=O)oc3ccccc23)(c2ccccc2)c2ccccc2)(c2ccccc2)c2ccccc2)c2ccccc2o1`, for which the pIC50 is 3.47 in series [3], 7.46 against Acetylcholinesterase [4] and 3.36 in series [5]. The Ratio IC50 in the series filed under Homo sapiens is 3.81.
Molecule `O=c1c2ccc(OCCN3CCCC3)cc2oc2cc(OCCN3CCCC3)cc(O)c12` had a negative logarithm of the IC50 (pIC50) against Acetylcholinesterase [6] of 6.92.
`O=C(OC1O[C@@H]2COC(=O)c3cc(O)c(O)c(O)c3-c3c(cc(O)c(O)c3O)C(=O)O[C@H]2[C@H](OC(=O)c2cc(O)c(O)c(O)c2)[C@H]1OC(=O)c1cc(O)c(O)c(O)c1)c1cc(O)c(O)c(O)c1` (some centres undefined) [TELLIMAGRANDIN II]: on Beta-secretase 1 [7], the pIC50 was 4.69.
`COc1cc(/C=C/C(=O)N2CCC(c3ncccn3)CC2)ccc1O`: the inhibition in [8] is 61.1%; in series [9], 53.1%. This molecule gave a pIC50 against Cholinesterase [10] of 5.47.
`Clc1ccc2c(NCCCNCC34CC5CC(CC(C5)C3)C4)ccnc2c1`: the pIC50 at Acetylcholinesterase [11] was 6.30.
The molecule `COc1cc(-c2nc3ccccc3s2)ccc1OCC(=O)NCCCNc1c2c(nc3ccccc13)CCCC2` gave an inhibition in series [12] of 33.7%.
In series [13], `CCN(CC)Cc1ccc(/C=C/C(=O)c2ccc(OC)c(OC)c2)cc1O` registered an inhibition of 20.2%.
For the molecule `CCN(CCCCOc1ccc(/C=C/C(=O)N2CCc3ccccc3C2)cc1OC)Cc1ccccc1`, the pIC50 in [14] is 5.20; in [15] it was 5.07; at Acetylcholinesterase [16], 4.92; on Cholinesterase [18], 5.05. The Activity in [17] came to 0.53 equiv.
On to `NCCCCCCNC1(c2ccccc2)CCCCC1`, for which the pIC50 in [19] was 6.62; in [20], 5.77.
Take `O=C(CCN1CCN(Cc2ccccc2)CC1)Nc1ccc2nc3n(c(=O)c2c1)CCC3`: the negative-log IC50 (pIC50) at Acetylcholinesterase [21] is 5.48; in series [22], 5.03; against Beta-secretase 1 [24], 6.89. Moreover, the inhibition against Cholinesterase [23] was found to be 45.3%.
With `CO[C@@H]1C=C[C@@]23c4cc5c(cc4CN(C[C@@H]2OC(=O)c2ccc([N+](=O)[O-])cc2)C3C1)OCO5` (some centres undefined), in [25], the inhibition stood at 27%. Besides, at Acetylcholinesterase [26], the pIC50 was 4.83.
As for `CC1(C)CCCC2(C)OC(=O)C=C12` (racemic) [DIHYDROACTINIDIOLIDE], the pIC50 on Acetylcholinesterase [27] was 7.52; in [28], 7.30; in [29], 4.30.
In the case of `O=S(=O)(NC12CC3CC(CC(C3)C1)C2)C1CCCS1` (centres undefined), the inhibition amounted to 88% in series [30] and 26% in series [31].
Turning to `CCOC(=O)C(Cc1cn(-c2ccccc2)nn1)(Cc1cn(-c2ccccc2)nn1)NC(C)=O`, the pIC50 in series [32] was 5.09. Further, the inhibition in series [33] stood at 96.9%.
